# Test results: US20200022967A1, “Use of 2-carboxamide cycloamino urea derivatives in the treatment of EGFR dependent diseases or diseases that have acquired resistance to agents that target EGFR family members” (Novartis AG, priority 2010, published 2020)
# Key:
# HCC1954 = test: Cell proliferation in HCC1954 breast cancer model; type: cell-based
# [1] = Body weight change in BT474 xenograft mice (Example 1); type: in vivo; settings: for mean body weight change: not significant; for mean change of body weight: 50 mg/kg p.o. once daily, p<0.05
# Description: (§1) Tumor volumes were measured with calipers and determined according to the formula: length×diameter^2×π/6. […] Regressions (%) were calculated according to the formula ((mean tumor volume at end of treatment-mean tumor volume at start of treatment)/mean tumor volume at start of treatment)×100. Body weights and tumor volumes were recorded twice a week.
# (§2) Where applicable, data is presented as mean±SEM. For all tests, the level of significance was set at p<0.05. For tumor volumes, comparisons between treatment groups and vehicle control group were done using one-way ANOVA followed by Dunnett's test. The level of significance of body weight change within a group between the start and the end of the treatment period was determined using a paired t-test. Comparisons of delta body weights between treatment and vehicle control groups were performed by a one-way ANOVA followed by a post hoc Dunnett's test.
# [2] = Body weight change in NCI-N87 xenograft mice (Example 2); type: in vivo; settings: 50 mg/kg p.o. once daily; not significant
# Description: as §1, §2
# BT-474 tumors = test: BT474 orthotopic xenograft, Compound A and trastuzumab combination (Example 3); type: in vivo, mice
# Description: The Compound was fully dissolved in NMP. Then, PEG300 and liquified Solutol were added (in sequence with vortexing after addition of each reagent).
# Where applicable, data is presented as mean±SEM.
# NCI-N87 tumors = test: NCI-N87 xenograft in CB17 SCID mice, Compound A alone and with trastuzumab (Example 4); type: in vivo
# Description: Experiments were performed in female CB17 SCID mice (Fox Chase SCID®, CB17/lcr-Prkdc^scid, Charles River) approximately 7-8 weeks of age and having a body weight (BW) range of 14.7-21.2 g at treatment start. All animals were fed ad libitum water (reverse osmosis, 1 ppm CI) and NIH 31 Modified and Irradiated Lab Diet® consisting of 18.0% crude protein, 5.0% crude fat, and 5.0% crude fiber. The mice were housed on irradiated Enrich-O'cobs™ Laboratory Animal Bedding in static microisolators on a 12-hour light cycle at 21-22° C. and 40-60% humidity.
# NCI-N87 cells (obtained from the American Type Culture Collection), which are of gastric origin and ErbB2 amplified, were maintained as exponentially growing cultures in RPMI-1640 medium supplemented with 10% fetal bovine serum, 2 mM glutamine, 100 units/mL penicillin G sodium, and 100 μg/mL streptomycin sulfate. The tumor cells were cultured in tissue culture flasks in a humid incubator at 37° C., in an atmosphere of 5% CO2 and 95% air. Cells were harvested with 1× trypsin and suspended at a concentration of 5×10^7 cells/mL in cold phosphate-buffered saline with 50% Matrigel. Each mouse was injected subcutaneously in the right flank with 1×10^7 cells (0.2 mL cell suspension). Tumor volumes were measured with calipers and determined according to the formula: width^2×length/2, and tumor weight estimated with the assumption that 1 mg is equivalent to 1 mm^3 of tumor volume. Nine days after tumor implantation (on Day 1 of the study), mice with individual tumor volumes of 126-320 mm^3 were sorted into 12 groups of eight mice with a group mean tumor volume of 231-239 mm^3.
# Compound A was formulated in NMP/PEG300/Solutol HS15/deionized water (10:30:20:40% vol/vol). The Compound was fully dissolved in NMP. Then, PEG300 and liquified Solutol were added (in sequence with vortexing after addition of each reagent). Water was added prior to administration to the animals. Fresh dosing solutions were prepared weekly and stored at 4° C., protected from light.
# (§3) Treatments started 9 days post tumor cell implantation and lasted for 30 consecutive days (or until tumor volume=2000 mm^3).
# Where applicable, data is presented as mean±SEM. Statisticial and graphical analyses was performed with Prism 3.03 (GraphPad) for Windows. For all tests, the level of significance of differences was done using ANOVA, with Bartlett's test; and a post-hoc Dunnett's multiple comparison test compared the mean change for each drub-treated group to the mean for Group 1. […] The significance of differences between the median volume changes for drug-treated groups and Group 1 was analyzed post hoc with Dunn's multiple comparison test. The two-tailed statistical analyses were conducted at P=0.05. Prism summarizes test results as not significant (ns) at P>0.05, significant (symbolized by “*”) at 0.01<P≤0.05, very significant (symbolized by “**”) at 0.001<P≤0.01, and extremely significant (symbolized by “***”) at P≤0.001.
# [3] = Body weight nadir and deaths in NCI-N87 trastuzumab study (Example 4); type: in vivo, mice
# From the text: as §3
# HBCx-5 xenograft tumor = test: HBCx-5 breast cancer xenograft, antitumor activity (Example 5); type: in vivo, mice; settings: Compound A 50 mg/kg p.o. daily for 42 days, single agent; p<0.001
# Description: Compound A was suspended at mg/ml in 0.5% methylcellulose (Sigma Aldrich, St. Louis, Mo.). It was homogenized by stirring vortexing and sonication. The suspension was stored at 4° C. for 7 days protected from light. […] Stock solution at 21 mg/ml was diluted just before administration at 1 mg/ml with sterile water for injection. Capecitabine (Xeloda®, Roche) at […] was kept at 4° C. protected from light. Capecitabine pellets were crushed and suspended in NaCl 0.9%.
# Dose was body weight adjusted at each injection.
# Capecitabine was administered by oral gavage (p.o.) at […], five times per week for two weeks (i.e., five consecutive dosing days/week). After a one week rest, a second treatment cycle was performed.
# [4] = Body weight nadir and deaths in NCI-N87 lapatinib study (Example 6)
# Description: Treatments started eight days post tumor cell implantation and lasted for 59 consecutive days or until tumor volume=1000 mm^3. […] For the b.i.d. dosing schedule, the first dose was given p.m. on Day 1 and last dose a.m. on Day 22. […] Body weights were recorded on Days 1-5, on each treatment day (except weekends), and twice weekly thereafter until end of the study.
# [5] = Group 2 (8 animals): Compound A 12.5 mg/kg p.o. once daily
# [6] = Group 3 (6 animals): Compound A 25 mg/kg p.o. once daily
# [7] = Group 4 (4 animals): Compound A 50 mg/kg p.o. once daily, stopped early
# [8] = Group 3: Compound A 25 mg/kg p.o. once daily
# [9] = Group 4: Compound A 50 mg/kg p.o. once daily
# [10] = Group 2: Compound A 12.5 mg/kg p.o. once daily
smiles,measurement,setting,value
"Cc1nc(NC(=O)N2CCC[C@H]2C(N)=O)sc1-c1ccnc(C(C)(C)C(F)(F)F)c1 [Compound A, (S)-Pyrrolidine-1,2-dicarboxylic acid 2-amide 1-({4-methyl-5-[2-(2,2,2-trifluoro-1,1-dimethyl-ethyl)-pyridin-4-yl]-thiazol-2-yl}-amide)]",cell death,"HCC1954; HCC1954, overexpressed ErbB2",induces cell death
same,GI50,"HCC1954; HCC1954 breast cancer model, read-out: median GI50",0.687 ± 0.132 µM
same,mean body weight change,[1]; 12.5 mg/kg p.o. once daily,1.4±1.2%
same,mean body weight change,[1]; 25 mg/kg p.o. once daily,−1.2±1.2%
same,mean change of body weight,[1]; first of the two experiments,10.6±4.1%
same,mean change of body weight,[1]; second of the two experiments,8.2±2.6%
same,mean change of body weight,[2],3.8±2.1%
same,Change Tumor Volume,"BT-474 tumors; B: Compound A 12.5 mg/kg p.o. daily, control C 584.2",125.7
same,T/C,"BT-474 tumors; Compound A 12.5 mg/kg p.o. daily, single agent",21.5%
same,antitumor effect,"BT-474 tumors; Compound A 50 mg/kg p.o. daily, single agent, p<0.05 Mann-Whitney",statistically significant antitumor effect
same,B/C,"BT-474 tumors; change tumor volume ratio, Compound A 12.5 mg/kg vs control",0.215
same,Regressions CR (complete regression),NCI-N87 tumors; [5],CR: 0
same,Regressions PR (partial regression),NCI-N87 tumors; [5],"PR: 0,"
same,T/C or T/T0,"NCI-N87 tumors; Group 2 (8 animals): Compound A 12.5 mg/kg p.o. once daily, vs G1 ns",46%
same,Regressions CR (complete regression),NCI-N87 tumors; [6],CR: 0
same,Regressions PR (partial regression),NCI-N87 tumors; [6],"PR: 0,"
same,T/C or T/T0,"NCI-N87 tumors; Group 3 (6 animals): Compound A 25 mg/kg p.o. once daily, vs G1 *",12%
same,Regressions CR (complete regression),NCI-N87 tumors; [7],CR: 0
same,Regressions PR (partial regression),NCI-N87 tumors; [7],"PR: 0,"
same,T/C or T/T0,"NCI-N87 tumors; Group 4 (4 animals): Compound A 50 mg/kg p.o. once daily, stopped early, vs G1 ne",81%
same,Deaths (TR/NTR),[3]; [5],0
same,Mean BW Nadir (lowest group mean BW),"[3]; Group 2: Compound A 12.5 mg/kg p.o. once daily, Day 22",−7% (Day 22)
same,Deaths NTR = non-treatment related,[3]; [8],NTR: 1
same,Deaths TR = treatment-related,[3]; [8],TR: 1
same,Mean BW Nadir (lowest group mean BW),"[3]; Group 3: Compound A 25 mg/kg p.o. once daily, Day 26",−12.2% (Day
same,Deaths NTR = non-treatment related,[3]; [9],NTR: 0
same,Deaths TR = treatment-related,[3]; [9],TR: 4
same,Mean BW Nadir (lowest group mean BW),"[3]; Group 4: Compound A 50 mg/kg p.o. once daily, Day 12",−13.1% (Day
same,T/C,HBCx-5 xenograft tumor,17.57%
same,Deaths NTR = non-treatment related,[4]; [10],NTR: 1
same,Deaths TR = treatment-related,[4]; [10],TR: 1
same,Deaths NTR = non-treatment related,[4]; [8],NTR: 1
same,Deaths TR = treatment-related,[4]; [8],TR: 1
same,Mean BW Nadir (lowest group mean BW),"[4]; Group 3: Compound A 25 mg/kg p.o. once daily, Day 14",−8.4%
